Experimental data reported in patent publication US9290440B2, “Bicyclic compound” (TOA EIYO LTD., priority 2012, dated 2016).

target: T1, human sGC α subunit and β subunit (Homo sapiens, UniProt Q02153); test: Heme-independent property of sGC activating function (EC50 ratio, CHO-K1 cells expressing human sGC and mouse CNGA2); format: cell-based; conditions: EC50 in the absence of ODQ divided by EC50 in the presence of ODQ, sGC activation
T1 construct: expressed in transfected cells
T1 sequence (Q02153 1-619): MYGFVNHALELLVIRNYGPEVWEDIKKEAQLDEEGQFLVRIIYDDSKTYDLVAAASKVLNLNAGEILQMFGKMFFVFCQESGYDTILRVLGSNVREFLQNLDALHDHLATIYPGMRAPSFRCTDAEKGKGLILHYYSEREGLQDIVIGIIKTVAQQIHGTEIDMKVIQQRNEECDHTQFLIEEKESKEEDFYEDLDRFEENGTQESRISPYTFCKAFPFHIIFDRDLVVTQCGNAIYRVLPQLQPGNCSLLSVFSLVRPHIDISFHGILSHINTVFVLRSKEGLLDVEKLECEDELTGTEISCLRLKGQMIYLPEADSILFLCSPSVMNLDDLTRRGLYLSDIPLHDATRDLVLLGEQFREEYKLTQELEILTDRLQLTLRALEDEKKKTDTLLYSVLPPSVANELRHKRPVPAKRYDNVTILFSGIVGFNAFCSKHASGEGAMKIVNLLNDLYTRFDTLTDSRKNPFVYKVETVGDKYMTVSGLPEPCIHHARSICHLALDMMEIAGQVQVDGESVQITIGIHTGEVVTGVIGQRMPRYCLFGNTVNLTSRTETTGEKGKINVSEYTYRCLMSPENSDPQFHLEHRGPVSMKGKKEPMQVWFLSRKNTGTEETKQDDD
T1 sequence (Q02108 1-690 partner): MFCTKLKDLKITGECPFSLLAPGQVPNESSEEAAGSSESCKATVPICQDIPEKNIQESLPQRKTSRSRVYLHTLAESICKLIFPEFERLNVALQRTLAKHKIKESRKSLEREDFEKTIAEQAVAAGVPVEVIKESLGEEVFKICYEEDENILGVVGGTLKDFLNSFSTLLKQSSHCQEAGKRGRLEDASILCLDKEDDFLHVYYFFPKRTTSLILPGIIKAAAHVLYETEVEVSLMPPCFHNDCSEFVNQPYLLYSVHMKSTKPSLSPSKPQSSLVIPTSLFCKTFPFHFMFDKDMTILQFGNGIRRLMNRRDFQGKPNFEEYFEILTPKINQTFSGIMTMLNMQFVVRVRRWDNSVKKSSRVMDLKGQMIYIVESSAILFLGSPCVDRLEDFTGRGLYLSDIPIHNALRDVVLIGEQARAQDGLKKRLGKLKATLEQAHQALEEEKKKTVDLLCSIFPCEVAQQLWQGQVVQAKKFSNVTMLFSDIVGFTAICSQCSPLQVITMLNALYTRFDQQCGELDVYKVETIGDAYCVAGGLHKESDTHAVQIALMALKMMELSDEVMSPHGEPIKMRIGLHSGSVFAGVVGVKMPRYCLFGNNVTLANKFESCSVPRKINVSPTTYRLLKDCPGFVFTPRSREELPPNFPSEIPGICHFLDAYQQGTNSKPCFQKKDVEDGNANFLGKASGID
Experimental: For the assay, Chinese hamster ovary cells (CHO-K1 cells) in which human sGC α subunit and β subunit and mouse cyclic nucleotide gated channel (CNGA2) are stably expressed were used.
CHO-K1 cells in which human sGC and mouse CNGA2 are stably expressed were cultured at 37° C. in F-12 medium containing 10% (v/v) fetal bovine serum (FBS), penicillin (100 U/mL), streptomycin (100 μg/mL), G418 (250 μg/mL), and zeocin (250 μg/mL). The cells were suspended in the culture medium and seeded onto a 96-well plate, and then cultured at 37° C. for 24 hours. After washing with assay buffer 1 (140 mmol/L sodium chloride, 5 mmol/L potassium chloride, 0.5 mmol/L magnesium chloride, 0.01 mmol/L calcium chloride, 10 mmol/L glucose, 0.4 mmol/L magnesium sulfate, 10 mmol/L 4-(2-hydroxyethyl)piperazin-1-ylethane sulfonic acid, and 125 μmol/L sulfinpyrazone, pH 7.4), an indicator solution in which FURA2-AM as a fluorescent Ca^2+ indicator is dissolved at concentration of 5 μmol/L in assay buffer 1 was added followed by culture for 60 minutes at 37° C. The indicator solution was removed. After washing with assay buffer 1, the test compound solution was added and incubated for 10 minutes at room temperature. The plate was placed in a fluorometer (Flex Station II, Molecular Devices, LLC), and then the intracellular calcium concentration was measured as fluorescence intensity ratio which is obtained from each excitation wavelength (excitation wavelength of 340 nm and 380 nm and detection wavelength of 510 nm).
The test compound solution was prepared by dissolving each of the test compounds in DMSO to a concentration of 10 mmol/L, and then adding the assay buffer 2 (140 mmol/L sodium chloride, 5 mmol/L potassium chloride, 0.5 mmol/L magnesium chloride, 1 mmol/L calcium chloride, 10 mmol/L glucose, 0.4 mmol/L magnesium sulfate, 10 mmol/L 4-(2-hydroxyethyl)piperazin-1-ylethane sulfonic acid, 125 μmol/L sulfinpyrazone, 100 μmol/L isobutylmethylxanthine, 10 μmol/L 1H-[1,2,4]-oxadiazole[4,3-a]quinoxalin-1-one (hereinbelow, ODQ), pH 7.4) for dilution to have test concentration of 10 μmol/L. For the evaluation of a case in which ODQ is not contained, the same evaluation was performed except that ODQ is excluded from assay buffer 2. As a control solution, a DMSO solution was used instead of the test compound solution.
The activity of the test compound corresponds to the increase ratio (%) of the sGC activity at the time of adding the test compound solution with respect to the sGC activity at the time of adding the control solution, and it was calculated by dividing the fluorescence intensity ratio at the time of adding the test compound by the fluorescence intensity ratio of the control solution and subtracting the sGC activity (100%) at the time of adding the control solution.
For the representative compounds, activity was measured in the same manner as Test Example 1 at each test concentration of 0.0001, 0.001, 0.003, 0.01, 0.03, 0.1, 1, and 10 μmol/L.
The degree of heme-independent property of each test compound with regard to sGC activating function was obtained by dividing, for EC50 measured from the concentration-activation curve which has been established from the above, EC50 in the absence of ODQ by EC50 in the presence of ODQ. Specifically, the smaller the EC50 ratio is, the less the change in sGC activating function is, the change in the function being caused by the presence or absence of ODQ, and thus it is found to be more heme-independent.
EC50 value was obtained by measuring the activity of each compound to be tested at concentrations of 0.0001, 0.001, 0.003, 0.01, 0.03, 0.1, 1, and 10 μmol/L and performing the calculation using four-parameter logistics model using Assay Explorer (Accelrys).

Row | Compound | EC50 Ratio (ODQ−/ODQ+)
1 | O=C(O)CCCCN(CCc1ccccc1OCc1ccc(CCc2ccccc2)cc1)Cc1ccc(C(=O)O)cc1 [Cinaciguat, reference compound] | 3.08
2 | O=C(O)CCCCN(CCc1ccccc1OCc1ccc(SCc2ccccc2)cc1)C1CCCc2cc(C(=O)O)ccc21 (stereo not drawn) [Example 15, 5-{N-[2-[2-(4-Benzylsulfanylbenzyloxyl)phenyl]ethyl]-N-(4-carboxybutyl)amino}-5,6,7,8-tetrahydronaphthalene-2-carboxylic acid] | 1.40
3 | O=C(O)CCCCN(CCc1ccccc1OCc1cccc2c1CCCC2)C1CCCc2cc(C(=O)O)ccc21 (stereo not drawn) [Example 29, 5-{N-(4-Carboxybutyl)-N-[2-[2-(5,6,7,8-tetrahydronaphthalene-1-ylmethoxy)phenyl]ethyl]amino}-5,6,7,8-tetrahydronaphthalene-2-carboxylic acid] | 1.71
